# Measured values as given in patent US8975259B2, “Compositions and methods for inhibiting G protein signaling” (University of Rochester, priority 2007, dated 2015).
# Entries after “also recorded” stand apart in the source; their conditions may differ. Read-outs that look alike come from different tables or passages of the source. No end group written: not given here.
# Legend:
# Fαi1GDPβ1γ2 heterotrimer = molecular target: T1, Fαi1GDPβ1γ2 heterotrimer (UniProt P54311+P63212); experiment: Dissociation of Fαi1 from preformed Fαi1β1γ2 heterotrimer (flow cytometry); assay type: binding; details: result in words
# T1 construct: made in house; host or cells: b-βγ: Sf9 insect cells
# Gαi1-Gβ1γ2 interaction = molecular target: T2, Gαi1-Gβ1γ2 interaction (UniProt P54311+P63212); experiment: Flow cytometry competition for FITC-Gαi1 binding to immobilized b-Gβ1γ2; details: peptides; read-out: IC50 for competition with Gαi binding to Gβ1γ2
# T2 construct: made in house; host or cells: b-βγ: Sf9 insect cells
# Procedure: (2003) supra; Sarvazyan, et al. (1998) J. Biol. […] Fluorescein-labeled Ga^ (Fan) was prepared in accordance with standard methods (Sarvazyan, et al. (1998) supra). Assays were used to determine peptide effects on Gα-Gβγ interactions included competition and dissociation assays (Ghosh, et al. (2003) supra). […] The bead-associated fluorescence was then recorded in a BD Biosciences […] flow cytometer. Data was corrected for background fluorescence and fit with a sigmoid dose response curve using Graph Pad Prism 4. To measure dissociation of Fan from b-Gβaγ2, 100 pM of Fa^ was incubated with 50 pM immobilized b-Gβ1γ2 at room temperature for 15-20 minutes.
# [1] = system: human μ opioid receptor (hMOR-CHO cells); experiment: Total inositol phosphate assay in hMOR-CHO cells; assay type: cell-based
# Procedure: Chinese hamster ovary (CHO) cells stably expressing either the human κ (hKOR-CHO), δ (hDOR-CHO)(L. Toll, Stanford Research Institute, Palo Alto, Calif.) or μ (hMOR-CHO)(G. Uhl, National Institute on Drug Abuse, Baltimore, Md.) opioid receptor were used in the experiments. Cells in 6-well plates were labeled by adding 4 μCi of [^3H]inositol for 24 hr in inositol-free F-10 media, without serum. After labeling, LiCl was added directly to the labeling media at a final concentration of 10 mM. Ligands or peptides were added at the same time. The final volume of each well was 1 mL. The plates were put back in to the incubator at 37° C. for 30 min after which time the medium was aspirated and the plates were washed twice with 1× PBS. Ice-cold 50 mM formic acid, 1 mL, was added to the plates which were placed in the cold room at 4° C. for 30 min. After the incubation, the contents of the plates were applied to Dowex AG1-X8 columns and allowed to flow all the way through the column. The columns were washed, twice each, with 50 and 100 mM formic acid, for a total of four washes, followed by elution of the IP-containing fraction with 3 mL of 1.2 M ammonium formate/0.1 M formic acid. The eluted fraction was mixed with Scintisafe scintillation fluid, for high salt, and counted. The data are represented as the fold increase over control in total inositol phospates. All experiments were repeated three times and performed in duplicate. Control cells for each experiment were labeled with [^3H]inositol and LiCl, in the same manner as the treatment groups.
# [2] = system: opioid-induced antinociception in mice; experiment: 55° C. warm-water tail-flick antinociception; assay type: in vivo, mouse; details: i.c.v., 20 min, 55° C. tail-flick; 95% CL in parentheses
# PLCβ2 = experiment: Gβ1γ2-dependent activation of purified PLCβ2; assay type: biochemical
# Procedure: (§1) Purified PLCβ2 (0.25 ng) was assayed in the presence (▴) or absence (▪) of 100 nM purified Gβ1γ2. […] Assays contained 10 ng of purified p101/p110 PI3Kγ heterodimer with or without 100 nM purified Gβ1γ2. Left panel: (▴) 100 nM Gβ1γ2 or (▪) no βγ. […] M119 or M201 and 25 nM purified GRK2 were added simultaneously to 250 nM biotinylated Gβ1γ2 (bGβ1γ2) immobilized on streptavidin agarose. GRK2 was detected with antibody to GRK2. Data are representative (mean ±SEM, except D) repeated at least three times each. […] 30 nM bGβ1γ2 was incubated with either 30 nM PLCβ2 or PLCβ3 in the presence or absence of M119 or M201 for 16 h at 4° C. before precipitation with avidin agarose and detection with PLCβ2,or Gβ antibodies. […] Same as 4E with PLCβ3.
# (§2) The ability of NSC119910 analogs to selectively modulate activation PLC-β2 and -β3 was analyzed. In this assay, PLC-β2 and PLC-β3 were purified and PLC enzymatic activity was measured in the presence or absence of purified βy and in the presence or absence of analog.
# (§3) Nevertheless, M119 and M201 were tested in in vitro reconstitution assays of Gβγ-dependent activation of PLCβ2, PLCβ3 and PI3Kγ and binding to GRK2. […] These are only two of multiple diverse compounds identified, indicating potential for multiple modes of Gβγ-dependent target modulation by these small molecules.
# Gβ1γ2 = Gβ1γ2 (UniProt P54311+P63212); experiment: Competition phage ELISA: inhibition of SIGK-phage binding to immobilized biotinylated Gβ1γ2; design: made in house; host or cells: Sf9 insect cells (baculovirus; co-expressed with BirA and (His)6-Gαi1, from which βγ was eluted); species or system rat
# Procedure: Phage ELISA assays used to assess peptide binding to wild-type and mutant b-βγ were performed according to standard methods (Smrcka and Scott (2002) Methods Enzymol. 344:557-76). Briefly, 1 μg streptavidin was immobilized in the well of a […] overnight at 4° C. The wells were blocked with 100 μL of 2% bovine serum albumin (BSA) in Tris-buffered saline (TBS) for 1 hour at 4° C. followed by three washes of IX TBS/0.5% TWEEN®. […] The wells were washed, followed by the addition of IxIO^6 to IxIO^10 phage particles and incubated at 4° C. for 3 hours. The wells were then washed six times with TBS/0.5% TWEEN® followed by addition of 40 μL of 1:5000 dilution of anti-M13 antibody (Pharmacia, Uppsala, Sweden) and incubated at room temperature for 1 hour. The wells were washed, followed by the addition of 40 μL of (2,2′-Azino-bis (3-ethylbenzthiazoline)-6-sulfonic acid (ABTS) and the colorimetric reaction was monitored at 405 nm. Nonspecific binding was subtracted for each reading.
# A phage ELISA assay was used to determine whether small molecules identified in the computational screen could interact with the Gβy protein interaction surface. […] The screen was based on a reduction in the optical density (OD) of wells containing Gβγ subunits and phage. […] Three background wells contained no βy subunits.
# As disclosed herein, biotinylated Gβy subunits were immobilized on the surface of a 96-well plate coated with streptavidin, phage displaying Gβγ-binding peptides were subsequently added and binding in the presence and absence of test compounds detected with an anti-phage antibody.
# The phage ELISA assay was used to rapidly screen the ability of compounds to bind to the protein interaction “hot spot” based on the method of Scott et. al (Scott et al., 2001). This assay is performed in the presence of detergent (0.5% Tween) to eliminate non-specific compound aggregation artifacts.
# Compounds/DMSO and 0.1×10^10 phage were added simultaneously and subsequently incubated for 1 h at room temperature. Plates were then washed with 1× Tris-buffered saline/0.5% Tween 20 and incubated with anti-M13, HRP-conjugated antibody (Amersham, Chalfont St. Giles, Buckinghamshire, UK). Phage binding was determined by monitoring A405 upon addition of 2,2′-azino-bis(3-ethylbenzothiazoline-6-sulfonic acid) (Sigma Aldrich).
# PLCβ3 = experiment: Gβ1γ2-dependent activation of purified PLCβ3; assay type: biochemical; design: key to PLCb3: NE = No effect; details: Table 19, effector IC50
# Procedure: as §1, §2, §3
# PI3Kγ = experiment: Gβ1γ2-dependent activation of purified p101/p110 PI3Kγ; assay type: biochemical; details: Table 19, effector IC50; read-out: PI 3-Kg
# Procedure: as §1, §3
# [3] = system: carrageenan-induced paw edema in mice; experiment: Carrageenan-induced paw edema and neutrophil abundance
# [4] = system: fMLP-dependent Ca2+ release in differentiated HL60 cells; experiment: fMLP-dependent Ca2+ release in fura-2 loaded DMSO-differentiated HL60 cells; assay type: cell-based, human; details: 10 μM compound, 250 nM fMLP; result in words
# Procedure: (§4) Cells were pretreated with DMSO or 10 μM compounds for 5 min prior to stimulation with 250 nM fMLP. […] Normalized peak Ca^2+ responses were pooled from three independent experiments each (mean±SEM). Cells were pretreated with DMSO (▪) or compounds (▴) for 5 min prior to stimulation. FIG. 5C is the same as A except 10 μM M201 was tested. […] Differentiated HL60 cells were treated with 10 μM compound prior to stimulation with 250 nM fMLP. Translocation of endogenous GRK2 was determined by Western blotting with a GRK2 antibody and quantitative chemiluminescence. Data are mean±SEM from 5 experiments, * P<0.05, **P<0.01 ANOVA. […] Differentiated HL60 cells stably over-expressing GFP-PHAkt were treated with 10 μM compound prior to stimulation with 100 nM fMLP. Translocation of GFP-PHAkt to the membrane was determined by Western blotting with an anti-GFP antibody and quantitative chemiluminescence. Data are mean±SEM from 4 experiments. *** P<0.001 ANOVA. […] Differentiated HL60 cells were pretreated with 10 μM of compound prior to stimulation with 1 μM fMLP for 5 min. Levels of phosphorylated and total ERK were determined by Western blotting.
# Ca^2+ fluxes were measured using two 35 mL cultures of differentiated HL-60 neutrophil cultures (0.2×10^6 cells/mL). Cells were cultured for three days with in DMSO
# (1.2%), washed in HSS and resuspended in 2 mL HBSS at a concentration of 7×10^s cells/mL. Addition of DMSO to the growth medium induces differentiation of these cells into morphologically and functionally mature neutrophils
# (Collins, et al. (1978) Proc. Natl. Acad. Sci. USA 75:2458; Collins, et al. (1979) J. Exp. Med. 149:969). Neutrophils were preloaded with fura-2 (1 μM), a fluorescent Ca^2+-sensitive indicator (Suh, et al. (1996) J. Biol. Chem. 271:32753), for 45 minutes, washed with HBSS and resuspended in 2 mL of indicator-free HBSS. An 140 μL aliquote of cells was added to a total of 2 mL HBSS. Fluorescence ratios were taken by dual excitation at 340 and 380 nm and emission at 510 nm. After a stable baseline was established, either DMSO or NSC119910 was added and incubated for 5 minutes. […]
# [5] = system: ERK1 and ERK2 activation in differentiated HL60 cells; experiment: fMLP-induced ERK1 and ERK2 activation in differentiated HL60 cells; assay type: cell-based, human; details: 10 μM compound, 1 μM fMLP; result in words
# Procedure: as §4
molecule,measurement,setting,value
SIRKALNILAYPDYD [SIRK(GIyIOAIa)],promotion/acceleration of heterotrimer dissociation,Fαi1GDPβ1γ2 heterotrimer,could still accelerate heterotrimer dissociation
same,IC50,Gαi1-Gβ1γ2 interaction,~80 µM
"C[C@@H](NC(=O)[C@@H](N)Cc1ccc(O)cc1)C(=O)NCC(=O)N(C)[C@@H](Cc1ccccc1)C(=O)NCCO [DAMGO, [D-Ala^2, N-Me-Phe^4, Gly^5-ol]-enkephalin]",increase in total IP compared to control,[1],4 fold
same,ED50 of opioid agonist alone,[2],0.07 nmol
Nc1ccc(-c2ccc(Nc3cc(S(=O)(=O)O)c(N)c4c3C(=O)c3ccccc3C4=O)cc2)c(S(=O)(=O)O)c1 [drawing 57],IC50,"PLCβ2; Table 3, read-out: PLCβ2 IC50",> 30 µM
O=C1c2ccccc2C(=O)c2c(Nc3cc4c5c(ccc6c7ccc8c9c(cc(Nc%10cccc%11c%10C(=O)c%10ccccc%10C%11=O)c(c3c56)c97)-c3ccccc3C8=O)C(=O)c3ccccc3-4)cccc21 [Compound M231],IC50,"Gβ1γ2; Table 8, read-out: IC50",16 µM
same,IC50,"Gβ1γ2; Table 18, compounds identified in Elisa screen, read-out: IC50",16 µM
same,IC50,"Gβ1γ2; Table 19, read-out: ELISA",27 µM
same,IC50,"PLCβ2; Table 19, effector IC50, read-out: PLCb2",167 µM
same,PLCb3,PLCβ3,NE
same,IC50,PI3Kγ,13.5 µM
COc1ccc2c(c1)c(CC(=O)O)c(C)n2C(=O)c1ccc(Cl)cc1 [indomethacin],effect on carrageenan-induced paw edema,"[3]; i.p. 1 h before carrageenan, gallein 100 mg/kg, indomethacin 2.5 mg/kg, result in words",sharply reduced
same,reduction of exudate volume,"[3]; i.p. pretreatment, 2 h after carrageenan",approximately 75%
Nc1ccc(Nc2cc(S(=O)(=O)O)c(N)c3c2C(=O)c2ccccc2C3=O)cc1 [drawing 55],IC50,"PLCβ2; Table 3, read-out: PLCβ2 IC50",75 µM
CC[C@H](C)[C@H](NC(=O)[C@H](CC(N)=O)NC(=O)[C@H](CC(C)C)NC(=O)[C@H](C)NC(=O)[C@H](C)NC(=O)[C@H](CCCNC(=N)N)NC(=O)[C@@H](NC(=O)[C@@H](N)CO)[C@@H](C)CC)C(=O)N[C@@H](CC(C)C)C(=O)NCC(=O)N[C@@H](Cc1ccc(O)cc1)C(=O)N1CCC[C@H]1C(=O)N[C@@H](CC(=O)O)C(=O)N[C@@H](Cc1ccc(O)cc1)C(=O)N[C@@H](CC(=O)O)C(=O)O [SIRK(Lys4Ala)],promotion/acceleration of heterotrimer dissociation,Fαi1GDPβ1γ2 heterotrimer,failed to accelerate heterotrimer dissociation
O=C(O)c1cccc2cccc(-c3c4ccc(=O)c(O)c-4oc4c(O)c(O)ccc34)c12 [Compound M119K],effect on fMLP-induced Ca^2+ increase,[4],block
same,effect on fMLP-induced activation of ERK1 and ERK2,[5],without interfering
C[C@H](NC(=O)[C@H](CS)NC(=O)[C@@H](N)CO)C(=O)N[C@@H](CCCNC(=N)N)C(=O)N[C@@H](Cc1ccccc1)C(=O)N[C@@H](Cc1ccccc1)C(=O)NCC(=O)N[C@H](C(=O)N1CCC[C@H]1C(=O)NCC(=O)N[C@@H](CS)C(=O)N[C@H](C(=O)O)[C@@H](C)O)[C@@H](C)O [SCAR],promotion/acceleration of heterotrimer dissociation,Fαi1GDPβ1γ2 heterotrimer,could not promote dissociation of a preformed heterotrimer; also recorded: the same as the intrinsic rate
Nc1cccc(Nc2cc(S(=O)(=O)O)c(N)c3c2C(=O)c2ccccc2C3=O)c1 [drawing 56],IC50,"PLCβ2; Table 3, read-out: PLCβ2 IC50",14 µM
"COC(=O)/C=C/C(=O)N[C@@H]1CC[C@@]2(O)[C@H]3Cc4ccc(O)c5c4[C@@]2(CCN3CC2CC2)[C@H]1O5 [β-FNA, β-funaltrexamine]",effect on DAMGO- and morphine-dependent IP production,[1],attenuated
